# Laboratory results reported in US20230272012A1, “PEPTIDES AND METHODS OF USE” (REALTA LIFE SCIENCES, INC., priority 2020, published 2023).
# “Also recorded” adds a separate entry of the source. Bridge positions count the residues as written; N and C are the ends. Square brackets hold non-standard residues; d marks the D form. Ends that are not written are not given here. Peptide text beside a SMILES is read from it. R8 = C=CCCCCCC[C@@](C)(N)C(=O)O; S5 = C=CCCC[C@](C)(N)C(=O)O; Sar = CNCC(=O)O
# How the values were obtained:
# [1] = system: purified human Pan T-cells; experiment: T-cell exhaustion protocol (Dynabeads re-stimulation); type: cell-based; settings: peptides 2 mg/ml at each stimulation; for IL-2 signal at stimulation 2: supernatant ELISA
# Method: Purified human pan-T-cells were subject to stimulation with Dynabeads every 48 hours over the period of 8 days with cells also receiving PIC1 peptides (2 mg/ml) at each stimulation. Cells not receiving Dynabeads were run in parallel to assess background levels of Caspase 3/7 signal. At the eighth day, cells were harvested and the levels of Caspase 3/7 determined by ELISA.
# Purified human pan-T-cells were subject to stimulation with Dynabeads every 48 hours over the period of 8 days with cells also receiving PIC1 peptides (2 mg/ml) at each stimulation. Cell supernatants were collected at each stimulation and levels of IL-2 and IFN-gamma assayed by ELISA.
# T-cell exhaustion is a form of T-cell dysfunction that occurs in cancer. It is defined by poor effector function, reduction in cytokine release (e.g., IL-2, TNF-alpha, IFN-gamma), sustained expression of inhibitory receptors (e.g., PD-1, LAG-3, CD244, CD160) with the progressive loss of effector function due to overstimulation. Exhaustion prevents optimal control of tumor growth. Exhausted T cells are prevalent in the tumor microenvironment (TME) and can lead to T-cell apoptosis. T-cell exhaustion is reversible, and pharmaceutical inhibition of T-cell exhaustion has been considered a promising strategy by many cancer researchers. To ascertain if PIC1 peptides could reverse T-cell exhaustion and increase T cell viability and effector function, a T-cell exhaustion protocol was developed. To induce T-cell exhaustion, purified human Pan T-cells were stimulated with T-Activator CD3/CD28 Dynabeads and cells are washed and re-stimulated every 48 hours. PIC1 peptides were added to the cells after each stimulation with Dynabeads. After three to four stimulations cells were harvested for readouts which consisted of assessing T-cell apoptosis by measuring Caspase 3/7 levels and production of cytokines IL-2 and IFN-gamma which is indicative of T-cell functionality. […] To further evaluate if PIC1 peptides could restore T-cell functionality in cells that have undergone the exhaustion protocol, the inventors next assessed production of cytokines IL-2 and IFN-gamma. Supernatants from the cells after each stimulation were collected and the cytokines measured by ELISA. […] The lower level of IFN-gamma signal compared to IL-2 was consistently seen in this assay.
# [2] = ABO incompatibility hemolytic assay of complement activity (CH50-type); type: cell-based, human; settings: human; peptide 0.8 mg/ml (~0.5 mM); read-out: decrease of ABO hemolysis compared to PA-I8Sar
# How it was run: (§1)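 Type AB human erythrocytes (5.0×10^7) incubated with 15% (final) type O human serum and 0.5 mM peptide in GVBS^++, 1 h at 37 °C. Hemolysis read as supernatant absorbance at 412 nm, expressed as percent of the serum-plus-RBC positive control; means of three independent experiments ±SEM.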
# [3] = target: T1, CTLA-4 (Homo sapiens, UniProt P16410); experiment: CTLA-4 Blockade Bioassay (Promega); type: cell-based; set-up: host or cells: Jurkat T cells (CTLA-4 effector cells); aAPC/Raji cells; settings: increasing concentrations
# T1 sequence (P16410 36-223): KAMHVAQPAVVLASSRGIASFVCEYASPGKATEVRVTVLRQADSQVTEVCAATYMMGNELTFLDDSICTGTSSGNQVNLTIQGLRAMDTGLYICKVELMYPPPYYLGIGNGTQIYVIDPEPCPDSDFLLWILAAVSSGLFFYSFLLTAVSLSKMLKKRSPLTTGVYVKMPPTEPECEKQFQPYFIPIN
# Method: CTLA-4 effector cells were incubated with aAPC/Raji Cells in the absence or presence of increasing concentrations of anti-CTLA-4 antibody (positive control), RLS-0127*, RLS-0130, RLS-0156, RLS-0170 and RLS-0174. Luminescence was detected in luminometer plate reader.
# To assess if PIC1 peptides could block CTLA-4 inhibitory activity in a cell-based assay, select peptides were screened in the CTLA-4 Blockade Bioassay (Promega). This bioluminescent cell-based assay is used to measure the potency and stability of molecules targeting CTLA-4 and consists of two genetically engineered cell lines: CTLA-4 effector cells: Jurkat T cells expressing human CTLA-4 and a luciferase reporter driven by a native promoter which responds to TCR/CD28 activation and aAPC/Raji Cells: Raji cells expressing an engineered cell surface protein designed to activate cognate TCRs in an antigen-independent manner and endogenously expressing CTLA-4 ligands CD80 and CD86. When the two cell types are co-cultured, CTLA-4 competes with CD28 for their shared ligands, CD80 and CD86 and thus inhibits CD28 pathway activation and promoter-mediated luminescence. Addition of a molecule that blocks the interaction of CTLA-4 with its ligands CD80 and CD86 results in promoter-mediated luminescence.
# [4] = system: complement activity; experiment: Hemolytic assay of plasma after IV infusion into rats; type: in vivo, rat; settings: IV in Wistar rats; early time points at the highest dose
# Method: Male Wistar rats with indwelling jugular catheters were administered PA-0117, -0127, -0130, and -0133 with groups of three animals receiving 20, 200 and 400 mg/kg of the compound as a single, bolus, IV infusion. A control group of rats received an infusion of saline IV. At various time points after infusion (0.5, 2, 5, 20, 60, 120, 240, 480, 1440 minute) an aliquot of blood was drawn and plasma isolated and frozen at −70° C. pending analysis. Animals were sacrificed after the terminal blood draw and a gross necropsy performed.
# PA-0117 could not be analyzed as no functional complement activity was obtained from the plasma samples. […] PA-0117 was analyzed in a C1q target acquisition assay (C1q binding assay) as described in Example 1 (FIG. 9). […] PA-0127 and -0130 levels were determined by coating the plate with the plasma samples and directly detecting the peptides by rabbit antibody raised against PA-0020 (peptide sequence […]; SEQ ID NO: 57) (FIGS. 10B and 11B). […] PA-0133 could not be detected by the available antibodies.
# [5] = system: antibody-initiated complement activation (human O sera and AB red blood cells); experiment: ABO incompatibility hemolytic assay of complement activity (CH50-type); type: cell-based; settings: for inhibition of complement activation in vitro, dose response: human AB red blood cells, human O plasma, increasing amounts of peptide
# How it was run: as §1
Compound,Caspase 3/7 levels ([1]; eighth day),IL-2 signal at stimulation 2 [1],decrease in ABO hemolysis compared to reference peptide at 1 h [2] [%],inhibitory activity in CTLA-4 blockade bioassay (luminescence) [3],inhibition of complement activity in the hemolytic assay of rat plasma [4],"inhibition of complement activation in vitro, dose response [5]",inhibition of ABO incompatible hemolysis compared to PA-I8Sar ([5]; peptide 0.8 mg/ml (~0.5 mM))
"CC[C@H](C)[C@H](N)C(=O)N[C@@H](C)C(=O)N[C@@H](CC(C)C)C(=O)N[C@H](C(=O)N[C@@H](CC(C)C)C(=O)N[C@@H](CCC(=O)O)C(=O)N1CCC[C@H]1C(=O)N(C)CC(=O)N[C@@H](CS)C(=O)N[C@@]1(C)CCCC=CCCC[C@@](C)(C(=O)N[C@@H](C)C(=O)O)NC(=O)[C@H](CCCNC(=N)N)NC(=O)[C@H](CCC(=O)O)NC(=O)[C@H](CCC(N)=O)NC1=O)[C@@H](C)CC [PA-0117, IALILEP(Sar)CS5QERS5A] (H-IALILEP[Sar]C[S5]QER[S5]A-OH; staple 10-14)",very low to undetectable levels of Caspase 3/7,showed an IL-2 signal at stimulation 2,25,did not,,,
IALILEP(Sar)dCCQERRA (IALILEP[Sar][dC]CQERRA; cysteine pairing not given here) [RLS-0127*],,showed an IL-2 signal at stimulation 2,,showed inhibitory activity; also recorded: able to inhibit CTLA-4 mediated cell signaling,inhibit complement activation,dose-dependently inhibited complement activation; also recorded: very similar levels of inhibition to the positive control; also recorded: inhibit complement activation,
"CC[C@H](C)[C@H](N)C(=O)N[C@]1(C)CCCCCCC=CCCC[C@@](C)(C(=O)N[C@@H](CS)C(=O)N[C@@H](CCC(N)=O)C(=O)N[C@@H](CCC(=O)O)C(=O)N[C@@H](CCCNC(=N)N)C(=O)N[C@@H](C)C(=O)N[C@@H](C)C(=O)O)NC(=O)CN(C)C(=O)[C@@H]2CCCN2C(=O)[C@H](CCC(=O)O)NC(=O)[C@H](CC(C)C)NC(=O)[C@H]([C@@H](C)CC)NC(=O)[C@H](CC(C)C)NC1=O [PA-0115, IR8LILEP(Sar)S5CQERAA] (H-I[R8]LILEP[Sar][S5]CQERAA-OH; staple 2-9)",,did not,30,did not,,,enhanced activity
IALILEP(Sar)CCQERA (IALILEP[Sar]CCQERA; cysteine pairing not given here) [RLS-0133*],,did not,,did not,inhibit complement activation,dose-dependently inhibited complement activation; also recorded: inhibit complement activation,
